Data: the kinase profiling compilation of Christmann-Franck et al. (2016)

How the values were obtained:
Test in all cases: radiometric filter-binding kinase assay
MAPK13 (human) = MAPK13 (human) (UniProt O15264); settings: ATP 100 µM
PRKACA or PRKACB (cow) = settings: accession and sequence are those of the human protein
CDK2 CCNA2 (human) = CDK2 CCNA2 (human) (UniProt P24941+P20248); settings: ATP 100 µM
AKT1 (human) = AKT1 (human) (UniProt P31749); settings: ATP 100 µM
PRKCA (human) = PRKCA (human) (UniProt P17252); settings: ATP 100 µM
[1] = system: RPS6KB1 (human), P23443 [T412E]; settings: ATP 100 µM
MAP2K1 (rabbit) = settings: ATP 100 µM, accession and sequence are those of the human protein
[2] = system: SGK1 (human), O00141 [S422D]; settings: ATP 100 µM
RPS6KA1 (rat) = settings: ATP 100 µM, accession and sequence are those of the human protein
MAPK11 (human) = MAPK11 (human) (UniProt Q15759); settings: ATP 100 µM
CHEK1 (human) = CHEK1 (human) (UniProt O14757); settings: ATP 100 µM
MAPKAPK2 (human) = MAPKAPK2 (human) (UniProt P49137); settings: ATP 100 µM
PHKG1 or PHKG2 (rabbit) = settings: ATP 100 µM, accession and sequence are those of the human protein
DYRK1A (rat) = settings: ATP 100 µM, accession and sequence are those of the human protein
CSK (human) = CSK (human) (UniProt P41240); settings: ATP 100 µM
MAPK14 (human) = MAPK14 (human) (UniProt Q16539); settings: ATP 100 µM
[3] = target: CSNK2A1 or CSNK2A2 (human) (UniProt P19784+P68400); settings: ATP 100 µM
PRKG1 (human) = PRKG1 (human) (UniProt Q13976); settings: compound 10.0 µM; ATP 100 µM
MAPK8 (human) = MAPK8 (human) (UniProt P45983); settings: ATP 100 µM
MAPKAPK5 (human) = MAPKAPK5 (human) (UniProt Q8IW41); settings: ATP 100 µM
GSK3B (human) = GSK3B (human) (UniProt P49841); settings: ATP 100 µM
RPS6KA5 KD1 KD2 (human) = RPS6KA5 KD1 KD2 (human) (UniProt O75582); settings: ATP 100 µM
ROCK2 (rat) = settings: ATP 100 µM, accession and sequence are those of the human protein
MAPK1 (mouse) = settings: ATP 100 µM, accession and sequence are those of the human protein
LCK (human) = LCK (human) (UniProt P06239); settings: ATP 100 µM
CSNK1A1 (rat) = settings: ATP 100 µM, accession and sequence are those of the human protein
PDPK1 (human) = PDPK1 (human) (UniProt O15530); settings: ATP 100 µM
MAPK12 (human) = MAPK12 (human) (UniProt P53778); settings: ATP 100 µM
PRKAA1 or PRKAA2 (rat) = settings: ATP 100 µM, accession and sequence are those of the human protein
MYLK2 (human) = MYLK2 (human) (UniProt Q9H1R3); settings: compound 20.0 µM; ATP 100 µM
MYLK (human) = MYLK (human) (UniProt Q15746); settings: compound 20.0 µM; ATP 100 µM

Chain of MAPK13 (human) (O15264 whole entry, looked up): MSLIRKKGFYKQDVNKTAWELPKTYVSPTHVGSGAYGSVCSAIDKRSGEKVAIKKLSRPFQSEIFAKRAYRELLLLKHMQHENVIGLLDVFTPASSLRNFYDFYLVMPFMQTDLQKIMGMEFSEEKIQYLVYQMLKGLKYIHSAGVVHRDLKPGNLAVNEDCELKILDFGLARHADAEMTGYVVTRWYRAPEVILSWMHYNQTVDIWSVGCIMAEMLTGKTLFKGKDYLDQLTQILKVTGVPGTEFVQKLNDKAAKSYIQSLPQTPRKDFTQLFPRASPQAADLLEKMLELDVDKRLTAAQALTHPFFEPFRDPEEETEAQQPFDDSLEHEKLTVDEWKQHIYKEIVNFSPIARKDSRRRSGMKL
Chain of GSK3B (human) (P49841 whole entry, looked up): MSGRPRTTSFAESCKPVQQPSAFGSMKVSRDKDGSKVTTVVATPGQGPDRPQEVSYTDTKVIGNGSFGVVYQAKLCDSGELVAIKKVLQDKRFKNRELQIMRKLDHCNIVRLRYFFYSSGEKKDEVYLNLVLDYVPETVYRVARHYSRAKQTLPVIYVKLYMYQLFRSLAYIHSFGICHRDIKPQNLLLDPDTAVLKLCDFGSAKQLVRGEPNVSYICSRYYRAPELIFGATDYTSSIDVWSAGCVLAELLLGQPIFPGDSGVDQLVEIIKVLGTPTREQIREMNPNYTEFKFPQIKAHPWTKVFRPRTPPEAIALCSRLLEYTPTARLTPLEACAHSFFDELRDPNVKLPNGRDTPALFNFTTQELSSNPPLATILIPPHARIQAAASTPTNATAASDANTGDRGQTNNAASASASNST
Chain of MAPK8 (human) (P45983 whole entry, looked up): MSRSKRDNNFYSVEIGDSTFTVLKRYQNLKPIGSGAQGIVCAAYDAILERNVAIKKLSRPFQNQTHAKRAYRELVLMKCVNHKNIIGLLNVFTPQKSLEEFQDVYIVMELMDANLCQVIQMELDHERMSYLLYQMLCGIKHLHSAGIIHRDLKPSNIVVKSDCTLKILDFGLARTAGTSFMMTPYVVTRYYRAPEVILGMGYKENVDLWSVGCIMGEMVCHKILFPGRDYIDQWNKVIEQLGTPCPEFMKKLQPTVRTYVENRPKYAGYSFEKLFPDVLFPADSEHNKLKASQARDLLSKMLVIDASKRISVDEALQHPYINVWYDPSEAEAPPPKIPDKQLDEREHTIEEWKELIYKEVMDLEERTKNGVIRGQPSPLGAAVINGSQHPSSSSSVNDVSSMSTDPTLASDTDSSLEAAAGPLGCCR
Chain of CHEK1 (human) (O14757 whole entry, looked up): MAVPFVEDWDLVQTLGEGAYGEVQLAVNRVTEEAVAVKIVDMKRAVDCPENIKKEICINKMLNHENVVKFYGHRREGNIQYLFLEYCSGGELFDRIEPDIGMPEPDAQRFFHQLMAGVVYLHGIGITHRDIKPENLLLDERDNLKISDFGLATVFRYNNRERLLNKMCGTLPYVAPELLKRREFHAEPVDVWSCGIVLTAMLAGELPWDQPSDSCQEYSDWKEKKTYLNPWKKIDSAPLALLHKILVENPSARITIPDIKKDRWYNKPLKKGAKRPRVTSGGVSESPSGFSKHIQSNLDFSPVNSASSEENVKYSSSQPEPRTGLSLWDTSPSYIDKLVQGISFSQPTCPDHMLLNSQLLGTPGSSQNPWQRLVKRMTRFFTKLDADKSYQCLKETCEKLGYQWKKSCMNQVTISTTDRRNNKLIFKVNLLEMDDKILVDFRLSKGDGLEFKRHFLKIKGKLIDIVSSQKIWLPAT
Chain of CSK (human) (P41240 whole entry, looked up): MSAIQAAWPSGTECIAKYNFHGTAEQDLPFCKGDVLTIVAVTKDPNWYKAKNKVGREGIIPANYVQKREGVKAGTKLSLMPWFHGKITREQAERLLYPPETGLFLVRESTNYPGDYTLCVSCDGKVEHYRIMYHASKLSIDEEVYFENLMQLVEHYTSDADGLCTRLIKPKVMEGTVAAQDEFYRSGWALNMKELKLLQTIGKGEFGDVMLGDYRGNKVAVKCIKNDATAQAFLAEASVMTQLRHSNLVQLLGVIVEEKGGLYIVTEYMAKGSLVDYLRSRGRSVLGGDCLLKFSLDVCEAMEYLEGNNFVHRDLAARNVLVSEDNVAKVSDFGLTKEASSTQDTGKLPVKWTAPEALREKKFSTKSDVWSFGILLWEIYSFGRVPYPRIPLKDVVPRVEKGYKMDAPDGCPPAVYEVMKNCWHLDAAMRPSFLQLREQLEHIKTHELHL
Chain of RPS6KA5 KD1 KD2 (human) (O75582 whole entry, looked up): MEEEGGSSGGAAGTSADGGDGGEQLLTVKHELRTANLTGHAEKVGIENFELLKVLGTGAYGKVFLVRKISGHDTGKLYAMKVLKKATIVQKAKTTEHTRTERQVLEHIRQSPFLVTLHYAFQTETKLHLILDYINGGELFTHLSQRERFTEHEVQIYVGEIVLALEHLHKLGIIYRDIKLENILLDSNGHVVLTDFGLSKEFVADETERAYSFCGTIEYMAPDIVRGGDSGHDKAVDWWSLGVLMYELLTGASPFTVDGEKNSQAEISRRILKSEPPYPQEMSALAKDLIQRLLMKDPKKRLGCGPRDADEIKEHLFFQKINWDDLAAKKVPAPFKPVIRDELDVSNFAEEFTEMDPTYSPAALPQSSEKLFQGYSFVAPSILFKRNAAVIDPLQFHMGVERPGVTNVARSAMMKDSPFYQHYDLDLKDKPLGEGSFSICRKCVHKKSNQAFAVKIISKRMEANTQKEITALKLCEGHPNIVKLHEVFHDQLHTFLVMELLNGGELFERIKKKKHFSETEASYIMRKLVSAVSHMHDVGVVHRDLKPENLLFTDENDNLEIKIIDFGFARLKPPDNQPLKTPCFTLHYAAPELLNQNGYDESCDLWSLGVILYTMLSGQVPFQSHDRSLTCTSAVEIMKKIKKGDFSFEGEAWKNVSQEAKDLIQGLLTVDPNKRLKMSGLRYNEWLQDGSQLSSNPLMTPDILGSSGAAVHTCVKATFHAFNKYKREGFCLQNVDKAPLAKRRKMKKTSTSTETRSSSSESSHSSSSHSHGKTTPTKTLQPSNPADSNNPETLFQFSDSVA
Chain of CDK2 CCNA2 (human) (P20248 whole entry, looked up, other chains not shown): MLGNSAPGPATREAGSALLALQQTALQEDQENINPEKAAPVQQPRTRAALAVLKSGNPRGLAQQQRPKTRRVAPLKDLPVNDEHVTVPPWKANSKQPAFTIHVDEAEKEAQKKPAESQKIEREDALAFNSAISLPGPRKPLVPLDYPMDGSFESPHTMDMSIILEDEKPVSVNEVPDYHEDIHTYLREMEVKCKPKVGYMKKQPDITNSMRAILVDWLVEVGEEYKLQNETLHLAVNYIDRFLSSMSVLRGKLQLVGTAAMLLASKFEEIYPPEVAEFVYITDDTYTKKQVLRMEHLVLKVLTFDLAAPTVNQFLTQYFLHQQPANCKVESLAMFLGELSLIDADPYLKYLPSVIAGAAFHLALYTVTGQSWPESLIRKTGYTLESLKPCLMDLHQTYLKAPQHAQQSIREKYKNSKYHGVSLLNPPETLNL
Chain of MAPKAPK2 (human) (P49137 whole entry, looked up): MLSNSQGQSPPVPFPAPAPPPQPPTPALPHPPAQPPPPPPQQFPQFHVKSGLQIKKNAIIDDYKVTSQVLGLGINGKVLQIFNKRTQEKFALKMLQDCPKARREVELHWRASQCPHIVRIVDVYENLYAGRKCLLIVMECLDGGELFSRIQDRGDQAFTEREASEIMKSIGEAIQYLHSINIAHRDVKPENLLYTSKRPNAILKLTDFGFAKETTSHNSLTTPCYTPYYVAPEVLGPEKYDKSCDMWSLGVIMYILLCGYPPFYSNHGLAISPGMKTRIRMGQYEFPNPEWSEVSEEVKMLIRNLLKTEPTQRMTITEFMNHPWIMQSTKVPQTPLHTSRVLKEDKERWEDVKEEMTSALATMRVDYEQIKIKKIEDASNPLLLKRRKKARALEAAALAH
Chain of AKT1 (human) (P31749 whole entry, looked up): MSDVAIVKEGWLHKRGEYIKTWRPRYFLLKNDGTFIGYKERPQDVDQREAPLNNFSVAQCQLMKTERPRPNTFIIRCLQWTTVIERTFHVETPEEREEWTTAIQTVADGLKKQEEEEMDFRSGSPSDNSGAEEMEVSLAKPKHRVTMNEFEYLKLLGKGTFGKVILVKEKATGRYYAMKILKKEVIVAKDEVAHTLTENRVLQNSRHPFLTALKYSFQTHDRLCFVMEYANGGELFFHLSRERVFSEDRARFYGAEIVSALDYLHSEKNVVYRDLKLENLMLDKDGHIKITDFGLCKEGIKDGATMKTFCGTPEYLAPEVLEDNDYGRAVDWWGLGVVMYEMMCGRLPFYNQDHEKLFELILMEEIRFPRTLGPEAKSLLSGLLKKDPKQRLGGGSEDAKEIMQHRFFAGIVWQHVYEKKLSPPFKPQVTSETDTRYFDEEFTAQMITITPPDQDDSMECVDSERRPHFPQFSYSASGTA

COC(=O)[C@@]1(OC)C[C@@H]2O[C@]1(C)n1c3ccccc3c3c4c(c5c6ccccc6n2c5c31)C(=O)N(C)C4
residual activity (MAPK13 (human); compound 10.0 µM): 105% | residual activity (PRKACA or PRKACB (cow); compound 10.0 µM): 102% | residual activity (CDK2 CCNA2 (human); compound 10.0 µM): 94% | residual activity (AKT1 (human); compound 10.0 µM): 83% | residual activity (PRKCA (human); compound 10.0 µM): 102% | residual activity ([1]; compound 10.0 µM): 90% | residual activity (MAP2K1 (rabbit); compound 10.0 µM): 99% | residual activity ([2]; compound 10.0 µM): 72% | residual activity (RPS6KA1 (rat); compound 10.0 µM): 105% | residual activity (MAPK11 (human); compound 10.0 µM): 100% | residual activity (CHEK1 (human); compound 10.0 µM): 93% | residual activity (MAPKAPK2 (human); compound 10.0 µM): 71% | residual activity (PHKG1 or PHKG2 (rabbit); compound 10.0 µM): 99% | residual activity (DYRK1A (rat); compound 10.0 µM): 112% | residual activity (CSK (human); compound 10.0 µM): 93% | residual activity (MAPK14 (human); compound 10.0 µM): 102% | residual activity ([3]; compound 10.0 µM): 98% | residual activity (PRKG1 (human)): 109% | residual activity (MAPK8 (human); compound 10.0 µM): 99% | residual activity (MAPKAPK5 (human); compound 10.0 µM): 83% | residual activity (GSK3B (human); compound 10.0 µM): 52% | residual activity (RPS6KA5 KD1 KD2 (human); compound 10.0 µM): 74% | residual activity (ROCK2 (rat); compound 10.0 µM): 97% | residual activity (MAPK1 (mouse); compound 10.0 µM): 106% | residual activity (LCK (human); compound 10.0 µM): 94% | residual activity (CSNK1A1 (rat); compound 10.0 µM): 83% | residual activity (PDPK1 (human); compound 10.0 µM): 114% | residual activity (MAPK12 (human); compound 10.0 µM): 103% | residual activity (PRKAA1 or PRKAA2 (rat); compound 10.0 µM): 90%

O=S(=O)(c1cccc2c(I)cccc12)N1CCCNCC1
residual activity (MYLK2 (human)): 63% | residual activity (MAPK13 (human); compound 20.0 µM): 75% | residual activity (PRKACA or PRKACB (cow); compound 20.0 µM): 85% | residual activity (CDK2 CCNA2 (human); compound 20.0 µM): 73% | residual activity (AKT1 (human); compound 20.0 µM): 88% | residual activity (PRKCA (human); compound 20.0 µM): 85% | residual activity (MYLK (human)): 10% | residual activity ([1]; compound 20.0 µM): 74% | residual activity (MAP2K1 (rabbit); compound 20.0 µM): 102% | residual activity ([2]; compound 20.0 µM): 101% | residual activity (RPS6KA1 (rat); compound 20.0 µM): 99% | residual activity (MAPK11 (human); compound 20.0 µM): 89% | residual activity (CHEK1 (human); compound 20.0 µM): 94% | residual activity (MAPKAPK2 (human); compound 20.0 µM): 93% | residual activity (PHKG1 or PHKG2 (rabbit); compound 20.0 µM): 85% | residual activity (DYRK1A (rat); compound 20.0 µM): 66% | residual activity (CSK (human); compound 20.0 µM): 94% | residual activity (MAPK14 (human); compound 20.0 µM): 100% | residual activity ([3]; compound 20.0 µM): 83% | residual activity (MAPK8 (human); compound 20.0 µM): 97% | residual activity (MAPKAPK5 (human); compound 20.0 µM): 78% | residual activity (GSK3B (human); compound 20.0 µM): 107% | residual activity (RPS6KA5 KD1 KD2 (human); compound 20.0 µM): 59% | residual activity (ROCK2 (rat); compound 20.0 µM): 74% | residual activity (MAPK1 (mouse); compound 20.0 µM): 85% | residual activity (LCK (human); compound 20.0 µM): 87% | residual activity (CSNK1A1 (rat); compound 20.0 µM): 106% | residual activity (PDPK1 (human); compound 20.0 µM): 107% | residual activity (MAPK12 (human); compound 20.0 µM): 95% | residual activity (PRKAA1 or PRKAA2 (rat); compound 20.0 µM): 82%

CN(C)S(=O)(=O)c1ccc2c(c1)/C(=C/c1cc3c([nH]1)CCCC3)C(=O)N2
residual activity (MAPK13 (human); compound 10.0 µM): 78% | residual activity (PRKACA or PRKACB (cow); compound 10.0 µM): 73% | residual activity (CDK2 CCNA2 (human); compound 10.0 µM): 54% | residual activity (AKT1 (human); compound 10.0 µM): 100% | residual activity (PRKCA (human); compound 10.0 µM): 90% | residual activity ([1]; compound 10.0 µM): 71% | residual activity (MAP2K1 (rabbit); compound 10.0 µM): 82% | residual activity ([2]; compound 10.0 µM): 70% | residual activity (RPS6KA1 (rat); compound 10.0 µM): 27% | residual activity (MAPK11 (human); compound 10.0 µM): 90% | residual activity (CHEK1 (human); compound 10.0 µM): 66% | residual activity (MAPKAPK2 (human); compound 10.0 µM): 96% | residual activity (PHKG1 or PHKG2 (rabbit); compound 10.0 µM): 21% | residual activity (DYRK1A (rat); compound 10.0 µM): 23% | residual activity (CSK (human); compound 10.0 µM): 89% | residual activity (MAPK14 (human); compound 10.0 µM): 70% | residual activity ([3]; compound 10.0 µM): 93% | residual activity (MAPK8 (human); compound 10.0 µM): 103% | residual activity (MAPKAPK5 (human); compound 10.0 µM): 95% | residual activity (GSK3B (human); compound 10.0 µM): 83% | residual activity (RPS6KA5 KD1 KD2 (human); compound 10.0 µM): 94% | residual activity (ROCK2 (rat); compound 10.0 µM): 43% | residual activity (MAPK1 (mouse); compound 10.0 µM): 102% | residual activity (LCK (human); compound 10.0 µM): 8% | residual activity (CSNK1A1 (rat); compound 10.0 µM): 66% | residual activity (PDPK1 (human); compound 10.0 µM): 94% | residual activity (MAPK12 (human); compound 10.0 µM): 75% | residual activity (PRKAA1 or PRKAA2 (rat); compound 10.0 µM): 14%
